In patent US7495027B2, “3-aryl-4-hydroxyfuranone compounds and the human and animal health use thereof” (Wyeth, priority 2003, dated 2009):

What was measured:
[1] = system: Trichostrongylus columbriformis; experiment: In vivo efficacy against T. colubriformis in infected gerbils; conditions: gerbils infected with T. colubriformis; single oral dose of 50 mg/kg by gavage; worm counts four days post-treatment; % mortality as compared to negative control
Procedure: In Vivo Evaluation of the Efficacy of Test Compounds Against T. colubriformis
In this evaluation, gerbils are infected with Trichostrongylus columbriformis infective larvae at a concentration of approximately 800 L3/mL. Larvae for gerbil infections are cultured from feces from sheep previously infected with T. colubriformis. One week post infection, test compounds are administered by gavage as a single oral dose of 50 mg/kg of body weight. For each group of 3 gerbils, 10 mg of test compound are dissolved in 2 mL of PEG 400:DMSO (1:2 v/v) and each animal is administered the test solution at a rate of 0.1 mL/10 g of body weight. […] All animals are observed daily for morbidity and mortality. Four days post-treatment, all animals are weighed and necropsied. Worm counts are conducted with the use of stereoscopes and counters.

[2] = system: larvae of blowfly, Lucilia sericata; experiment: whole plant or invertebrate; conditions: dose rate of 20 ppm, Lucilia sericata larvae on treated filter paper with bovine serum; for % Mortality 24 h: assessed at 24 h; for % Mortality 48 h: assessed at 48 h
Procedure: Comparative Evaluation of the Efficacy of a 3-Aryl-4-hydroxyfuranone Compound Against Blowfly Larvae
In this evaluation, filter paper discs are treated with an acetone solution of test compound and allowed to dry. Bovine serum and newly emerged larvae of blowfly, Lucilia sericata, are added to the treated filter paper. Mortality is assessed at 24 h and 48 h. When more than one evaluation is performed, the data are averaged.

Cc1cc(/C=C2\OC(=O)C(c3cccc(Cl)c3)=C2O)ccc1-c1ccccc1C(F)(F)F
Mortality [1]: 11.20%

Cc1cc(/C=C2\OC(=O)C(c3cccc(Cl)c3)=C2O)ccc1-c1ccccc1Cl
Mortality [1]: 16.90%

COc1ccccc1-c1ccc(C=C2OC(=O)C(c3cccc(Cl)c3)=C2O)cc1C
Mortality [1]: 0.00%

COc1cc(/C=C2\OC(=O)C(c3cccc(Cl)c3)=C2O)ccc1-c1ccccc1Cl
Mortality [1]: 0.00%

Cc1ccc(C2=C(O)/C(=C/c3cccc(C(F)(F)F)c3Cl)OC2=O)cc1C
Mortality [1]: 36.50%

CCc1ccc(C2=C(O)C(=Cc3cc(C(F)(F)F)ccc3Cl)OC2=O)cc1
Mortality [1]: 39.00%

O=C1OC(=Cc2cnccc2-c2cccc(Cl)c2)C(O)=C1c1ccc(OC(F)(F)F)cc1 (mixture of isomers)
Mortality [1]: 66.80%

O=C1OC(=Cc2cnccc2-c2ccc(Cl)cc2)C(O)=C1c1ccc(OC(F)(F)F)cc1 (mixture of isomers)
Mortality [1]: 84.60%

O=C1OC(=Cc2cnccc2-c2ccc(OC(F)(F)F)cc2)C(O)=C1c1ccc(OC(F)(F)F)cc1 (mixture of isomers)
Mortality [1]: 82.60%

O=C1OC(=Cc2cnccc2-c2ccc(Cl)s2)C(O)=C1c1ccc(OC(F)(F)F)cc1 (mixture of isomers)
Mortality [1]: 88.50%

CCCOc1ccc(C=C2OC(=O)C(c3ccc(OC(F)(F)F)cc3)=C2O)cc1 (mixture of isomers)
Mortality [1]: 10.40%

N#Cc1ccc(C=C2OC(=O)C(c3ccc(C(F)(F)F)cc3)=C2O)cc1 (mixture of isomers) [R=H, R1=4-CF3—C6H4**, R2=4-CN—C6H4]
% Mortality 24 h [2]: 100% | % Mortality 48 h [2]: 100%

O=C1OC(=Cc2ccc(Cl)cc2)C(O)=C1c1ccc(C(F)(F)F)cc1 (mixture of isomers) [R=H, R1=4-CF3—C6H4**, R2=4-Cl—C6H4]
% Mortality 24 h [2]: 100% | % Mortality 48 h [2]: 100%

O=C1OC(=Cc2ccc(F)cc2)C(O)=C1c1ccc(C(F)(F)F)cc1 (mixture of isomers) [R=H, R1=4-CF3—C6H4**, R2=4-F—C6H4]
% Mortality 24 h [2]: 100% | % Mortality 48 h [2]: 100%

N#Cc1ccc(C2=C(O)C(=Cc3cccc(C(F)(F)F)c3)OC2=O)cc1 (mixture of isomers) [R=H, R1=4-CN—C6H4**, R2=3-CF3—C6H4]
% Mortality 24 h [2]: 0% | % Mortality 48 h [2]: 90%

N#Cc1ccc(C2=C(O)C(=Cc3ccc(C(F)(F)F)cc3)OC2=O)cc1 (mixture of isomers) [R=H, R1=4-CN—C6H4**, R2=4-CF3—C6H4]
% Mortality 24 h [2]: 100% | % Mortality 48 h [2]: 100%

N#Cc1ccc(C=C2OC(=O)C(c3ccc(C#N)cc3)=C2O)cc1 (mixture of isomers) [R=H, R1=4-CN—C6H4**, R2=4-CN—C6H4]
% Mortality 24 h [2]: 40% | % Mortality 48 h [2]: 100%

N#Cc1ccc(C2=C(O)C(=Cc3ccc(Cl)cc3)OC2=O)cc1 (mixture of isomers) [R=H, R1=4-CN—C6H4**, R2=4-Cl—C6H4]
% Mortality 24 h [2]: 25% | % Mortality 48 h [2]: 100%

N#Cc1ccc(C2=C(O)C(=Cc3ccc(F)cc3)OC2=O)cc1 (mixture of isomers) [R=H, R1=4-CN—C6H4**, R2=4-F—C6H4]
% Mortality 24 h [2]: 0% | % Mortality 48 h [2]: 0%

O=C1OC(=Cc2ccccc2C(F)(F)F)C(O)=C1c1ccc(Cl)cc1 (mixture of isomers) [R=H, R1=4-Cl—C6H4**, R2=2-CF3—C6H4]
% Mortality 24 h [2]: 10% | % Mortality 48 h [2]: 10%

O=C1OC(=Cc2cccc(Cl)c2)C(O)=C1c1ccc(Cl)cc1 (mixture of isomers) [R=H, R1=4-Cl—C6H4**, R2=3-Cl—C6H4]
% Mortality 24 h [2]: 0% | % Mortality 48 h [2]: 0%

O=C1OC(=Cc2ccc(C(F)(F)F)cc2)C(O)=C1c1ccc(Cl)cc1 (mixture of isomers) [R=H, R1=4-Cl—C6H4**, R2=4-CF3—C6H4]
% Mortality 24 h [2]: 100% | % Mortality 48 h [2]: 100%

N#Cc1ccc(C=C2OC(=O)C(c3ccc(Cl)cc3)=C2O)cc1 (mixture of isomers) [R=H, R1=4-Cl—C6H4**, R2=4-CN—C6H4]
% Mortality 24 h [2]: 0% | % Mortality 48 h [2]: 90%

O=C1OC(=Cc2ccc(F)cc2)C(O)=C1c1ccc(Cl)cc1 (mixture of isomers) [R=H, R1=4-Cl—C6H4**, R2=4-F—C6H4]
% Mortality 24 h [2]: 0% | % Mortality 48 h [2]: 0%

O=C1OC(=Cc2ccc(C(F)(F)F)cc2)C(O)=C1c1ccc(F)cc1 (mixture of isomers) [R=H, R1=4-F—C6H4**, R2=4-CF3—C6H4]
% Mortality 24 h [2]: 0% | % Mortality 48 h [2]: 0%

N#Cc1ccc(C=C2OC(=O)C(c3ccc(F)cc3)=C2O)cc1 (mixture of isomers) [R=H, R1=4-F—C6H4**, R2=4-CN—C6H4]
% Mortality 24 h [2]: 0% | % Mortality 48 h [2]: 0%

O=C1OC(=Cc2ccc(Cl)cc2)C(O)=C1c1ccc(F)cc1 (mixture of isomers) [R=H, R1=4-F—C6H4**, R2=4-Cl—C6H4]
% Mortality 24 h [2]: 0% | % Mortality 48 h [2]: 0%

O=C1OC(=Cc2ccc(F)cc2)C(O)=C1c1ccc(F)cc1 (mixture of isomers) [R=H, R1=4-F—C6H4**, R2=4-F—C6H4]
% Mortality 24 h [2]: 0% | % Mortality 48 h [2]: 0%

COC1=C(c2cccc(C(F)(F)F)c2)C(=O)O/C1=C\c1ccccc1 [R=CH3, R1=3-CF3—C6H4, R2=C6H5]
% Mortality 24 h [2]: 0% | % Mortality 48 h [2]: 0%

O=C1O/C(=C\c2ccc(-c3ccccc3)c(F)c2)C(O)=C1c1cccc(C(F)(F)F)c1 [R=H, R1=3-CF3—C6H4, R2=4-(3-F-biphenyl)]
% Mortality 24 h [2]: 0% | % Mortality 48 h [2]: 0%

O=C1O/C(=C\c2cccc3ccccc23)C(O)=C1c1cccc(CO)c1 [R=H, R1=3-CH2OH—C6H4, R2=1-naphthyl]
% Mortality 24 h [2]: 0% | % Mortality 48 h [2]: 0%

N#Cc1ccc(-c2ccc(/C=C3\OC(=O)C(c4ccc(Cl)cc4)=C3O)cc2)cc1 [R=H, R1=4-Cl—C6H4*, R2=4-(4′-CN-biphenyl)]
% Mortality 24 h [2]: 0% | % Mortality 48 h [2]: 100%

N#Cc1ccc(-c2ccc(/C=C3\OC(=O)C(c4ccc(Cl)cc4)=C3O)cc2)cc1 [R=H, R1=4-Cl—C6H4, R2=4-(4′-CN-biphenyl)]
% Mortality 24 h [2]: 0% | % Mortality 48 h [2]: 0%

COc1ccc(C=C2OC(=O)C(c3ccc(Cl)cc3)=C2O)cc1 [R=H, R1=4-Cl—C6H4, R2=4-OMe—C6H4]
% Mortality 24 h [2]: 0% | % Mortality 48 h [2]: 0%

O=C1O/C(=C\c2cccc(C(F)(F)F)c2)C(O)=C1c1ccccc1 [R=H, R1=C6H5, R2=3-CF3—C6H4]
% Mortality 24 h [2]: 0% | % Mortality 48 h [2]: 0%

O=C1O/C(=C\c2ccccc2)C(O)=C1c1ccccc1C(F)(F)F [R=H; R1=2-CF3—C6H4; R2=C6H5]
Mortality [1]: 34.60%

O=C1O/C(=C\c2ccc(-c3ccccc3F)cc2)C(O)=C1c1ccccc1F [R=H; R1=2-F—C6H4; R2=4-(2′F-biphenyl)]
Mortality [1]: 12.40%

O=C1O/C(=C\c2cc(C(F)(F)F)ccc2F)C(O)=C1c1cccc(-c2ccccc2)c1 [R=H; R1=3-biphenyl; R2=2-F-5-CF3—C6H4]
Mortality [1]: 38.40%

O=C1O/C(=C\c2cc(F)cc(C(F)(F)F)c2)C(O)=C1c1cccc(-c2ccccc2)c1 [R=H; R1=3-biphenyl; R2=3-F-5-CF3—C6H4]
Mortality [1]: 0.00%

O=C1O/C(=C\c2ccc(Cl)cc2)C(O)=C1c1ccc(-c2ccccc2)c(F)c1 [R=H; R1=4-(3-F-biphenyl); R2=4-CI-C6H4]
Mortality [1]: 22.00%

O=C1O/C(=C\c2cccc(Cl)c2)C(O)=C1c1ccc(Cl)cc1 [R=H; R1=4-Cl—C6H4; R2=3-CI-C6H4]
Mortality [1]: 25.40%
